Laboratory results: ChEMBL document CHEMBL5649166, “RIP3 induces apoptosis independent of pronecrotic kinase activity” (Mol Cell, 2014)
The source made the active and inactive calls. The calls are words filed in the database; no cut-off is given here.

Tests used:
SVEC4-10 [1] = assay: Inhibition of DAI-induced necroptosis in MCMV M45mutRHIM infected mouse SVEC4-10 cells assessed as increase in cell viability incubated for 18 hrs by Cell Titer-Glo luminescent cell viability assay; assay type: functional, cell-based
L929 [2] = assay: Inhibition of TNF-alpha induced necroptosis in mouse L929 cells assessed as increase in cell viability at 10 uM incubated for 18 hrs in presence of zVAD by Cell Titer-Glo luminescent cell viability assay; assay type: functional, cell-based
L929 [3] = assay: Inhibition of TLR-3 induced necroptosis in mouse L929 cells assessed as increase in cell viability at 10 uM incubated for 18 hrs in presence of zVAD and poly(I:C) by Cell Titer-Glo luminescent cell viability assay; assay type: functional, cell-based
SVEC4-10 [4] = assay: Inhibition of TNF-induced necroptosis in mouse SVEC4-10 cells assessed as increase in cell viability incubated for 18 hrs in presence of zVAD by Cell Titer-Glo luminescent cell viability assay; assay type: functional, cell-based
3T3SA [5] = assay: Induction of apoptosis in mouse 3T3SA cells assessed as cell death by measuring percent of PI positive cells incubated for 3 hrs in presence of TNF by PI staining based flow cytometric analysis (reference value: 10.7%); assay type: toxicity
3T3SA [6] = assay: Induction of apoptosis in mouse 3T3SA cells assessed as cell death by measuring percent of PI positive cells incubated for 8 hrs in presence of TNF by PI staining based flow cytometric analysis (reference value: 11.4%); assay type: toxicity
L929 [7] = assay: Inhibition of TNF-alpha induced necroptosis in mouse L929 cells assessed as increase in cell viability at 30 uM incubated for 18 hrs in presence of zVAD by Cell Titer-Glo luminescent cell viability assay; assay type: functional, cell-based
L929 [8] = assay: Inhibition of TLR-3 induced necroptosis in mouse L929 cells assessed as increase in cell viability at 30 uM incubated for 18 hrs in presence of zVAD and poly(I:C) by Cell Titer-Glo luminescent cell viability assay; assay type: functional, cell-based

Row | Structure (SMILES) | inhibition (SVEC4-10 [1]) | inhibition (L929 [2]) | inhibition (L929 [3]) | inhibition (SVEC4-10 [4]) | Activity (3T3SA [5]) [%] | Activity (3T3SA [6]) [%] | inhibition (L929 [7]) | inhibition (L929 [8])
1 | CC(C)(C)C(=O)N1N=CC[C@H]1c1ccccc1 | inactive | Active | inactive | Active | – | – | – | –
2 | C[C@@H]1CC([C@H](O)CC2CC(=O)NC(=O)C2)C(=O)[C@@H](C)C1 (stereo not given in full) | – | – | – | – | 22 | 60 | – | –
3 | CN1C(=O)C(Cc2c[nH]c3ccccc23)NC1=S (stereo not given) | inactive | – | – | Active | – | – | Active | inactive
